Laboratory results: patent US9062051B2, “Compounds and pharmaceutical compositions thereof for the treatment of proliferative disorders” (GALAPAGOS NV, priority 2014, dated 2015)
One block for each compound: values may come before it.

Legend:
[1] = target: T1, EphB4 (UniProt Ref: Q541P7) (Homo sapiens, UniProt P54760); assay: EphB4 assay (Reaction Biology HotSpot radioactive kinase assay); assay type: biochemical; settings: ATP 10 μM; read-out: EphB4 potency IC50
T1 construct: purchased Reaction Biology
T1 sequence (P54760 16-987): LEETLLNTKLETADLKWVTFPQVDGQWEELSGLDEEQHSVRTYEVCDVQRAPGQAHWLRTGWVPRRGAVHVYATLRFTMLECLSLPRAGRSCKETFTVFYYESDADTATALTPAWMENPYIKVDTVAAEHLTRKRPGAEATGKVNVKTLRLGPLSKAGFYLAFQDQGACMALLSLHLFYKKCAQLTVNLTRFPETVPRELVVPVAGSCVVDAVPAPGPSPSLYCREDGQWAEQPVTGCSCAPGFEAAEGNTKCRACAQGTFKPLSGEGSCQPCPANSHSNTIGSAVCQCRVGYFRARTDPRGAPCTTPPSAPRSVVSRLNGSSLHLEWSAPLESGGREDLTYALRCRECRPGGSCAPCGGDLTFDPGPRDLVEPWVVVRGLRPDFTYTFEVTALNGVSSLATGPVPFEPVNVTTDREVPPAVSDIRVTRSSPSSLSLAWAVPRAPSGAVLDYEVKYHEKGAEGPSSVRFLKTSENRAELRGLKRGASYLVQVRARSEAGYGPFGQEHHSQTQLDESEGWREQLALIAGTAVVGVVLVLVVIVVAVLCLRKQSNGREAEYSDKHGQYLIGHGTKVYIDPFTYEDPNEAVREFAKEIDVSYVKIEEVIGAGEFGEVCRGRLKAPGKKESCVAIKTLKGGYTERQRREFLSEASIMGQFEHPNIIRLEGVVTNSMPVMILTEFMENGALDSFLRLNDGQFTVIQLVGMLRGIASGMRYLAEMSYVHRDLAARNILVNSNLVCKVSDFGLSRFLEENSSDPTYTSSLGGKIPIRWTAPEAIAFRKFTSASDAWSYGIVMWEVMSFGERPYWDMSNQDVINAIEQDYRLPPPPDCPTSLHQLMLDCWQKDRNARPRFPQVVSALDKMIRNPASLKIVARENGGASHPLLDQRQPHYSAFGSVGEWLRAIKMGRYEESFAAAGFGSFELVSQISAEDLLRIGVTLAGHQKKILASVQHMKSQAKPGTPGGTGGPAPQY
Method: (§1) Inhibition of EphB4 (UniProt Ref: Q541P7) by a test compound is determined by a commercially available Reaction Biology proprietary nanoliter radioactive HotSpot^SM assay (Reaction Biology, One great valley parkway, Suite 2, Malvern Pa., 19355, USA). The principle of the assay consists of the measurement of incorporated ^33P into poly[Glu:Tyr] (4:1) (0.2 mg/mL) when the substrate is phosphorylated by the enzyme using [^33P]-γ-ATP and ATP (10 μM).
To determine the IC50, a serial dilution of compound is tested starting from 10 or 3 μM (highest dilution) with a 1/3 dilution.

[2] = target: T2, EphA2 (UniProt Ref: P29317) (Homo sapiens, UniProt P29317); assay: EphA2 assay (Reaction Biology HotSpot radioactive kinase assay); assay type: biochemical; settings: ATP 10 μM; read-out: EphA2 potency IC50
T2 construct: purchased Reaction Biology
Method: as §1, with “EphA2” for “EphB4”, “P29317)” for “Q541P7)”
To determine the IC50, a serial dilution of compound is tested starting from 10, or 3 μM (highest dilution) with a 1/3 dilution.

[3] = target: T3, Recombinant EphB2 (Homo sapiens, UniProt P29323); assay: EphB2 assay (33P incorporation into poly GT, filter plate); assay type: biochemical; settings: read-out: EphB2 potency IC50
T3 construct: purchased Carna 08-129
T3 sequence (P29323 19-986 isoform P29323-2 limits assumed): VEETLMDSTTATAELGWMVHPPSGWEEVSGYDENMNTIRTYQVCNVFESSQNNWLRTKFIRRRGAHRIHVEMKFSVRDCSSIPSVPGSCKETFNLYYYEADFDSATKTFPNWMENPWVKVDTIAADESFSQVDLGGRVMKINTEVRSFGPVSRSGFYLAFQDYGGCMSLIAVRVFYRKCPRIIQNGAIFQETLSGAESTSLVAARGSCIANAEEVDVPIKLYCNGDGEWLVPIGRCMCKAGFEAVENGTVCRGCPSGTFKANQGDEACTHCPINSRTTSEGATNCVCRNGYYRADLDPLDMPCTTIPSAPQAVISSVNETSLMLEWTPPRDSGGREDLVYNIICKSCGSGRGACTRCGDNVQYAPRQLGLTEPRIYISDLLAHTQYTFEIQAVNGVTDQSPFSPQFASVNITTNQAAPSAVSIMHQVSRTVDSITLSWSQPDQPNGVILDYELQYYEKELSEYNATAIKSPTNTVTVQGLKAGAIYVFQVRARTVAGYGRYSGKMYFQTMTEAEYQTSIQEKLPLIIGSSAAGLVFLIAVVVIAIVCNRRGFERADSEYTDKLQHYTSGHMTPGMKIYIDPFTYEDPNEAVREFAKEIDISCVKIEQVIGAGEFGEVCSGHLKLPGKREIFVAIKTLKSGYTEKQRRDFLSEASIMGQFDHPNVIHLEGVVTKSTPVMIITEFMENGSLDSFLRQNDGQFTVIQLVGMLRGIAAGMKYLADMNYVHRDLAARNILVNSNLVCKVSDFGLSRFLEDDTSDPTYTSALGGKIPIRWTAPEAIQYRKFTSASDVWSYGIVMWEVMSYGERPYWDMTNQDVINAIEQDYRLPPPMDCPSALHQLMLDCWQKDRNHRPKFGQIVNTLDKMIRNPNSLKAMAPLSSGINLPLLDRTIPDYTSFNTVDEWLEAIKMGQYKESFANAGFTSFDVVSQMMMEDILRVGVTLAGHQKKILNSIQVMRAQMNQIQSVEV
Method: The principle of the assay consists of the measurement of incorporated ^33P into the substrate poly GT when phosphorylated by the enzyme EphB2 using [^33P]-γ-ATP and ATP. Unincorporated ^33P is removed by loading the samples on a filter plate (using a harvester, Perkin Elmer) and 6 subsequent washing steps. ^33P incorporated in polyGT is measured on a Topcount after addition of microscint to the filter plates (Perkin Elmer).
Recombinant EphB2 (Carna Cat#08-129, 0.6 ng per well) was incubated with 0.05 mg/mL Poly(Glu,Tyr)sodium salt (4:1), MW 20 000-50 000 (Sigma catalog number P0275) in kinase reaction buffer (10 mM MOPS pH 7.2, 5 mM DTT, 0.01% Triton-X100, 5 mM MnCl2, 0.5 mM Na3VO4, 5 mM beta-glycerolphosphate), 0.5 μM non-radioactive ATP, 0.25 μCi/25 μl ^33P-gamma-ATP (Perkin Elmer, catalog number NEG602K) final concentrations with or without 5 μL containing test compound or vehicle (DMSO, 1% final concentration), in a total volume of 25 μL, in a polypropylene 96-well plate (Greiner, V-bottom). After 45 min at 30° C., reactions were stopped by adding of 25 μL/well of 150 mM phosphoric acid. The experiment was then conducted as described for EphA7. The ability of a test compound to inhibit the kinase activity was determined using counts per minutes (cpm) measured by the Topcount as:
Cpm (cpd): cpm determined for sample with test compound present
Cpm (control): cpm determined for sample with positive control inhibitor (10 μM staurosporine)
Cpm (vehicle): cpm determined in the presence of vehicle (1% DMSO)
Dose dilution series were prepared for the compounds enabling the testing of dose-response effects in the EphB2 assay and the calculation of the IC50 for each compound. Each compound was routinely tested at concentration of 20 μM followed by a 1/5 serial dilution, 10 points in a final concentration of 1% DMSO. When potency of compound series increased, more dilutions may be prepared and/or the top concentration may be lowered (e.g. 5 μM, 1 μM).

[4] = Pharmacokinetics in rats (exposure, AUC); assay type: in vivo, male Sprague Dawley rats; settings: male, Sprague Dawley, rat, plasma, po, 5 mg/kg
Method: This study is performed with 6 naïve male Sprague Dawley rats (180-200 g, 6-8 weeks old). Rats are obtained from Janvier, Le Genest St Isle, France.
A controlled environment is maintained in the room with optimal conditions of approximately 15 air changes per hour, a temperature of 22±2 C, a relative humidity of 30-70% and a 12 hour light/dark cycle
Pelleted diet for rodents (UAR A04C-10) is used and is provided ad libitum. Before p.o. dosing, the animals are deprived of food for at least 12 hours before compound administration and 4 hours after administration. All animals had free access to tap water.
Two days before the dosing day, the implantation of a catheter in the jugular vein is done under gaseous anaesthesia with isoflurane.
Rats are dosed intravenously with test compound via a bolus in the tail vein with a dose level of 1 mg/kg. […]
The i.v. bolus and the oral administration are given a dose volume of 5 mL/kg.
From all animals approximately 200 μL blood samples are collected via the catheter and placed into tubes containing Li-heparin as anticoagulant. Blood samples are collected at the various time points (i.v.: 0.05, 0.25, 0.5, 1, 3, 5, 8 and 24 hours after dosing; p.o.: 0.25, 0.5, 1, 3, 5, 8 and 24 hours after dosing).
Blood is kept on ice. Within 1 hour after sampling, blood is centrifuged at 5,000 rpm for 10 min at 4° C. Immediately after centrifugation, the resulting plasma samples are collected into polypropylene tubes and are kept frozen at −20° C. pending bioanalysis.
Plasma samples are assayed by LC-MS/MS. Plasma proteins are precipitated with an excess of methanol containing the internal standard and the corresponding supernatant is injected on a C18 column. Analytes are eluted out the HPLC system by increasing the percentage of the organic mobile phase. An API4000 mass spectrometer (AB Sciex™) is used for the detection and quantification.
Pharmacokinetic parameters are calculated by non-compartmental analysis using WinNonlin® software (Pharsight, version 5.2).

[5] = system: MDA-MB-231 cells; assay: Mouse xenograft model of human triple negative breast cancer (MDA-MB-231), tumorous growth inhibition; assay type: in vivo, Female BALB/c Mice; settings: day 26, 20 mg/kg, ip, 3x/ week
Method: Animals (Female BALB/c Mice, Harlan, 51930, 18-20 g) are provided with filtered tap water and standard chow ad libitum and maintained at 22±2° C. in 55±10% humidity on a 12 h light/dark cycle.
Paclitaxel used as a positive control is formulated by 1/3 dilution of commercial solution (Fresenius kabi, 871WF014/4) in saline.
The test compounds for po administration are formulated in 0.5% methylcellulose (VWR, ref AX021233).
MDA-MB-231 cell line is obtained from the ATCC collection (ref HTB-26). The cells are then cultured in RPMI 1640 medium supplemented with […] (Gibco 15140-148) and 1% (v/v) L-Glutamine 200 mM (Gibco 25030-024) at 37° C. in a 5% CO2 incubator.
5 million MDA-MB-231 cells/mice in 0.1 mL of 50% Matrigel (BD biosciences, LDEV free 256235)+50% D-PBS 1× (Gibco 14190-086) are injected by subcutaneous route on the upper back of 120 mice. Prior to implantation, mice are anesthetized by intra-peritoneal injection with a 0.1 mL/10 g dose of anaesthetic solution (18 mL NaCl, 0.9%+0.5 mL xylazine, +1.5 mL ketamine. […]
Body weight, and tumor growth is recorded twice a week during the course of treatment.
After 26 days the treatment is stopped, in each group half of the mice are euthanized for tissue collection, and the other half is kept for a further 7 days, during which period body weight and tumour sized are measured.
In sacrificed mice, blood and tumours are collected, analysed, and the effect of the test compounds is compared with controls (vehicle and paclitaxel).
The values were obtained using the following calculations
Relative Tumor Volume (RTV):
Tumor Growth Inhibition (TGI) TGI=1−T/C

T2 sequence (P29317 24-976): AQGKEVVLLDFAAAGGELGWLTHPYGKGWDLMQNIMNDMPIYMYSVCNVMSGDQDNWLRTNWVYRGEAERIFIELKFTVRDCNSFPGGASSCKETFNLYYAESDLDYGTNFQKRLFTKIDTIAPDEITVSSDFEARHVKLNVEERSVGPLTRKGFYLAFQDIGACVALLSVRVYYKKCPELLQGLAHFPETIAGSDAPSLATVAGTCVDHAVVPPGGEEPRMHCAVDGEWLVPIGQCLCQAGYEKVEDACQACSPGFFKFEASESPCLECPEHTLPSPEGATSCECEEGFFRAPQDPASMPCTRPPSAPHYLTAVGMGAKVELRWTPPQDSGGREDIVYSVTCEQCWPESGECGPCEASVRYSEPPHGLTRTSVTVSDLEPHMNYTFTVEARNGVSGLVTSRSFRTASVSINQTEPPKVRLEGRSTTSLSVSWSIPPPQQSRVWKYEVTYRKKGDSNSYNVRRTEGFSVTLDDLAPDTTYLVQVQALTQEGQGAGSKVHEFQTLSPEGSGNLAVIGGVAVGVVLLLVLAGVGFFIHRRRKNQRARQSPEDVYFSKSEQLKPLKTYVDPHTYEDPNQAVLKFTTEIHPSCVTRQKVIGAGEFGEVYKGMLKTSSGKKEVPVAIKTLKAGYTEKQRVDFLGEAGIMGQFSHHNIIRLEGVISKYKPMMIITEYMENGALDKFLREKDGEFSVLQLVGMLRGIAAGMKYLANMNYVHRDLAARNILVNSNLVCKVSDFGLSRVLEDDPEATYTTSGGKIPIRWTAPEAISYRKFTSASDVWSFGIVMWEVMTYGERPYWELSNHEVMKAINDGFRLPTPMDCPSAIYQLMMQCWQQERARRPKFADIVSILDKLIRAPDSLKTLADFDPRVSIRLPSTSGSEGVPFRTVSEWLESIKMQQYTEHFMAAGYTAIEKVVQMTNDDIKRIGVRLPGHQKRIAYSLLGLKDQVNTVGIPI

IC50 [1]: 0.01 to 25 nM
IC50 [2]: 25 to 50 nM
IC50 [3]: 0.01 to 25 nM
Compound: Cc1cc(C)cc(C(=O)Nc2ccc(C)c(-c3ccc4c(C(O)CN5CCOCC5)n[nH]c4n3)c2)c1 (stereo not drawn) [Compound 7, N-{3-[3-(1-Hydroxy-2-morpholin-4-yl-ethyl)-1H-pyrazolo[3,4-b]pyridin-6-yl]-4-methyl-phenyl}-3,5-dimethyl-benzamide]

AUC [4]: 2000 ng·h/mL
Compound: CCc1n[nH]c2nc(-c3cc(NC(=O)c4cc(OC)cc(OC)c4)ccc3C)ccc12 [Compound 8, N-[3-(3-Ethyl-1H-pyrazolo[3,4-b]pyridin-6-yl)-4-methyl-phenyl]-3,5-dimethoxy-benzamide]

AUC [4]: 274 ng·h/mL
IC50 [2]: 0.01 to 25 nM
Compound: COc1cc(OC)cc(C(=O)Nc2ccc(C)c(-c3ccc4c(CO)n[nH]c4n3)c2)c1 [Compound 10, N-[3-(3-Hydroxymethyl-1H-pyrazolo[3,4-b]pyridin-6-yl)-4-methyl-phenyl]-3,5-dimethoxy-benzamide]

Compound: CC(=O)O[C@H]1C(=O)[C@@]2(C)[C@H]([C@H](OC(=O)c3ccccc3)[C@]3(O)C[C@H](OC(=O)[C@H](O)[C@@H](NC(=O)c4ccccc4)c4ccccc4)C(C)=C1C3(C)C)[C@]1(OC(C)=O)CO[C@@H]1C[C@@H]2O [Paclitaxel, paclitaxel]
RTV (Relative Tumor Volume) [5]: 2.06
T/C (Tumour Vs Control) [5]: 24.31%
TGI (Tumor Growth Inhibition) [5]: 75.69%
